Experimental data published in patent publication US20080125409A1, “1,5-Diheterocycle-1H-Triazole Derivative” (DAIICHI PHARMACEUTICAL CO., LTD., priority 2004, published 2008).

What was measured:
[1] = tested on: platelet-rich plasma (PRP), collagen-induced platelet aggregation; test: Collagen-stimulated platelet aggregation inhibition in human platelet-rich plasma; format: cell-based; conditions: 2 min, 2 min at 37° C. with compound
Description: Platelet Aggregation Suppressing Action
Human blood was collected using a 3.13% solution of sodium citrate as an anticoagulant, in a volume 1/10 of the blood volume, and was centrifuged at 180 g for 10 minutes to separate platelet-rich plasma (PRP) from the blood. The PRP in the upper layer was isolated, and then the lower layer was centrifuged at 1600 g for 10 minutes to isolate the platelet-poor plasma (PPP) in the upper layer. 1 μL of a solution of the compound of the Examples) was added to 200 μL of the PRP, and the mixture was allowed to stand for 2 minutes at 37° C. Then, 2 μL of collagen was added thereto, so as to induce platelet aggregation. The rate of platelet aggregation was measured using a PAM-12C (SSR Engineering). By taking the light transmittance of the PPP as the value indicating 100% aggregation, the rates of platelet aggregation at various concentrations of the compound of the Examples were determined, and the IC50 value was calculated.

COX-1 = molecular target: T1, COX-1 (Ovis aries, UniProt P05979); test: Cyclooxygenase-1 (COX-1) inhibitory effect (Cayman COX Inhibitor Screening Assay Kit, PGF2α ELISA); format: biochemical; conditions: in the presence of 50 μM of the compound; PGF2α production without compound regarded as 100%; read-out: COX inhibitory activity COX-1 (rate of COX-1 inhibition)
T1 construct: purchased Cayman Chemical Company 560101 and 560121
T1 sequence (P05979 25-600): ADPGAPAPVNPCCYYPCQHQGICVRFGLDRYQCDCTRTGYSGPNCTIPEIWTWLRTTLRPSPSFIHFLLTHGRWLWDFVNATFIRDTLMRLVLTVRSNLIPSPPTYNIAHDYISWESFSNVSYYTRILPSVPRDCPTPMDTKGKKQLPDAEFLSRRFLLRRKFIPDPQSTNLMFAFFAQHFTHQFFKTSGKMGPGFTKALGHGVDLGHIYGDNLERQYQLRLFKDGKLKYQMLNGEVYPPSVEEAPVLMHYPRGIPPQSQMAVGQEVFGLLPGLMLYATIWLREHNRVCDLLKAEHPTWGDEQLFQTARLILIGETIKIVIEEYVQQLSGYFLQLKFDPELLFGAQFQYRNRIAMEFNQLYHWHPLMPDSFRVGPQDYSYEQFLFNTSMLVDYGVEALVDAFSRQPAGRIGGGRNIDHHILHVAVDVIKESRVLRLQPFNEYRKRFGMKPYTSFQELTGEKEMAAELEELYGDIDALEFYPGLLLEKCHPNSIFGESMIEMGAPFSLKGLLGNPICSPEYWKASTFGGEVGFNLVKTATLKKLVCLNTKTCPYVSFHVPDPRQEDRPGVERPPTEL
Source text: Cyclooxygenase-1 (COX-1) Inhibitory Effect
For the measurement of the COX-1 inhibitory activity of the compound of the Examples, a COX Inhibitor Screening Assay Kit manufactured by Cayman Chemical Company (Catalog Nos. 560101 and 560121) was used.
Before starting the measurement, a reaction buffer, heme, arachidonic acid, SnCl2, EIA buffer, a washing buffer, prostaglandin (PG)-screening EIA standard solution, PG-screening acetylcholinesterase (AchE), a tracer […], and PG-screening EIA antiserum were provided.
(1) Production of PGF2α by COX-1
A reaction solution containing the compound of the Examples (50 μM) and COX-1 was allowed to stand at 37° C. for 10 minutes, then 10 μl of arachidonic acid was added thereto, and the resultant mixture was allowed to stand at 37° C. for 2 minutes. After the reaction, 50 μl of 1 N hydrochloric acid was added to the reaction mixture to thereby stop the reaction, and 100 μl of a SnCl2 solution was added thereto. The resultant mixture was allowed to stand at room temperature for 5 minutes.
(2) Quantification of PGF2α by ELISA
50 μl of antiserum (rabbit anti-PGF2α antibody) was added to each of the wells of a 96-well plate coated with mouse anti-rabbit IgG. Then, 50 μl of a solution prepared by diluting the aforementioned reaction solution for the production of PGF2α to 2000-folds, and 50 μl of an AchE tracer were added sequentially to the wells, and the plate was allowed to stand at room temperature for 18 hours. Each well was washed 5 times with the washing buffer to remove excessive AchE tracer, and then 200 μl of Ellman reagent was added to each well. The plate was kept in a dark room for 60 minutes, and then, absorbance at 405 nm was measured.
(3) Calculation of Inhibitory Activity of the Compound of the Examples
A standard curve was produced using a PG-screening EIA standard solution, and the amount of PGF2α production was determined from the absorbance obtained in the above. The rate of COX-1 inhibition in the presence of 50 μM of the compound of the Examples was calculated.

## COc1ccc(-n2nc(C(=O)NC(C)(C)C)nc2-c2ccccn2)cn1 [Example 1, N-tert-Butyl-1-(6-methoxy-3-pyridyl)-5-(2-pyridyl)-1H-1,2,4-triazole-3-carboxamide]
[1]
  IC50: 40 nM
COX-1
  inhibition at 50 µM: 7.5%

## COc1ccc(-n2nc(C(=O)NC(C)(C)C)nc2-c2ccc(C#N)cn2)cn1 [Example 3, N-tert-Butyl-5-(5-cyano-2-pyridyl)-1-(6-methoxy-3-pyridyl)-1H-1,2,4-triazole-3-carboxamide]
[1]
  IC50: 160 nM
COX-1
  inhibition at 50 µM: 19.5%

## COc1ccc(-n2nc(C(=O)NC(C)(C)C)nc2-c2cnc(C)cn2)cn1 [Example 6, N-tert-Butyl-1-(6-methoxy-3-pyridyl)-5-(5-methyl-2-pyrazinyl)-1H-1,2,4-triazole-3-carboxamide]
[1]
  IC50: 170 nM
COX-1
  inhibition at 50 µM: -15.8%

## COc1ccc(-n2nc(C(=O)NC(C)(C)C)nc2-c2ccc(Cl)cn2)cn1 [Example 11, N-tert-Butyl-5-(5-chloro-2-pyridyl)-1-(6-methoxy-3-pyridyl)-1H-1,2,4-triazole-3-carboxamide]
[1]
  IC50: 88 nM

## COc1ccc(-n2nc(C(=O)NC(C)(C)C)nc2-c2ccc(N)cn2)cn1 [Example 14, 5-(5-Amino-2-pyridyl)-1-(6-methoxy-3-pyridyl)-1H-1,2,4-triazole-3-carboxylic acid N-tert-butylamide]
[1]
  IC50: 130 nM

## COc1ccc(-n2nc(C(=O)NCC(C)(C)C)nc2-c2ccc(C)cn2)cn1 [Example 18, 1-(6-Methoxy-3-pyridyl)-5-(5-methyl-2-pyridyl)-1H-1,2,4-triazole-3-carboxylic acid N-neopentylamide]
[1]
  IC50: 13 nM

## COc1ccc(-n2nc(C(=O)NC(C)C)nc2-c2ccccn2)cn1 [Example 22, N-isoPropyl-1-(6-methoxy-3-pyridyl)-5-(2-pyridyl)-1H-1,2,4-triazole-3-carboxamide]
[1]
  IC50: 530 nM

## COc1ccc(-n2nc(C(=O)N3CCN(C)CC3)nc2-c2ccc(C)cn2)cn1 [Example 29, 1-[1-(6-Methoxy-3-pyridyl)-5-(5-methyl-2-pyridyl)-1H-1,2,4-triazole-3-carbonyl]-4-methylpiperazine]
[1]
  IC50: 220 nM
COX-1
  inhibition at 50 µM: -23.1%

## Cc1ccc(-c2nc(C(=O)NC(C)(C)C)nn2-c2ccc(C)nc2)nc1 [Example 35, N-tert-Butyl-1-(6-methyl-3-pyridyl)-5-(5-methyl-2-pyridyl)-1H-1,2,4-triazole-3-carboxamide]
[1]
  IC50: 120 nM
COX-1
  inhibition at 50 µM: -17.2%

## COc1ccc(-n2nc(C(=O)N3CCC[C@H]3CF)nc2-c2ccc(C)cn2)cn1 [Example 37, (2S)-1-[1-(6-Methoxy-3-pyridyl)-5-(5-methyl-2-pyridyl)-1H-1,2,4-triazole-3-carbonyl]-2-fluoromethylpyrrolidine]
[1]
  IC50: 16 nM
COX-1
  inhibition at 50 µM: 6.6%

## COc1ccc(-n2nc(C(=O)N3CCOCC3)nc2-c2ccc(C)cn2)cn1 [Example 38, 4-[1-(6-Methoxy-3-pyridyl)-5-(5-methyl-2-pyridyl)-1H-1,2,4-triazole-3-carbonyl]morpholine]
[1]
  IC50: 250 nM
COX-1
  inhibition at 50 µM: 0.9%

## COc1ccc(-n2nc(C(=O)N3CCC(F)(F)CC3)nc2-c2ccc(CO)cn2)cn1 [Example 41, 1-[5-(5-Hydroxymethyl-2-pyridyl)-1-(6-methoxy-3-pyridyl)-1H-1,2,4-triazole-3-carbonyl]-4,4-difluoropiperidine]
[1]
  IC50: 220 nM
COX-1
  inhibition at 50 µM: 4.6%

## COc1ccc(-n2nc(C(=O)NC3(C)CC3)nc2-c2ccc(C)cn2)cn1 [Example 44, N-(1-Methylcyclopropyl)-1-(6-methoxy-3-pyridyl)-5-(5-methyl-2-pyridyl)-1H-1,2,4-triazole-3-carboxamide]
[1]
  IC50: 220 nM
